Data on ten molecules can be found in article PMC8341910, “Structural and biophysical insights into the mode of covalent binding of rationally designed potent BMX inhibitors” (RSC Chemical Biology, 2020).

Each structure is given as a SMILES string. Values after ≈ are worked out from the molar mass of the structure shown. Read-outs that look alike come from different tables or passages of the source.

One data set addresses T1, BMX (Homo sapiens, UniProt P51813).
T1 sequence (P51813 1-675): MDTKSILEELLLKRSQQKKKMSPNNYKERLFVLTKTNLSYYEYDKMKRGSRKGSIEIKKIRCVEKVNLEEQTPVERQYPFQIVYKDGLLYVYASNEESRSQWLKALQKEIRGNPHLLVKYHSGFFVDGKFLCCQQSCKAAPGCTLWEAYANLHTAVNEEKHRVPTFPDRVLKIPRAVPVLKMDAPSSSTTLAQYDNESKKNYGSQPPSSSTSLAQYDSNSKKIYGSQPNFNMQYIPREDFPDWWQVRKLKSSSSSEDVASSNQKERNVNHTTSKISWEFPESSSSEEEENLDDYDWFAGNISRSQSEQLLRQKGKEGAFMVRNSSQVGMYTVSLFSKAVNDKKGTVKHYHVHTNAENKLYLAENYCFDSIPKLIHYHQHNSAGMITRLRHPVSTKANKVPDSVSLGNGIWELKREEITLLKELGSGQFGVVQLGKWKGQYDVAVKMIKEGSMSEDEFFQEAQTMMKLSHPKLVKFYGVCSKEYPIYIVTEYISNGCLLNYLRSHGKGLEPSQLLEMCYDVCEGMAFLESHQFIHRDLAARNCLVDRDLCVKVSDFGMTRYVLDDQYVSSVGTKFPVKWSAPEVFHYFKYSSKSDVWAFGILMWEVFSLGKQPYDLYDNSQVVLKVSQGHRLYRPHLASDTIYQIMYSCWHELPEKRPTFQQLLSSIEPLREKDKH
Description: BMX biochemical activity assay (HTRF, phosphorylation of a biotinylated peptide). The conditions noted are these: for IC50: read-out: BMX IC50. For orientation: Time-resolved FRET reads energy transfer from a long-lived donor to a nearby acceptor.

Data set [1] can be described thus: Dynamic light scattering, colloidal aggregation. The data set is classed as physicochemical. The conditions noted are these: measured at 10 µM, 1 µM and 100 nM; water, 25 °C; read-out: DLS maximum soluble concentration at which no aggregates are observed.
The conditions of data set [2]: pH 6.8.
Description: For assessment of drug permeability, we relied on parallel artificial membrane permeability assay (PAMPA) performed at Pion Inc. with the PAMPA Evolution™ instrument (Table S1, ESI ^†).
methods (ESOL model1 and Ali et al.2) PAMPA: Pe is effective permeability (x10-6 cm/sec)
measured directly from assay at pH 6.8 and %R is membrane retention.
as the average of quadruplicates. Und label refers to compounds with extremely low solubility
for which UV limits were below the detection limits therefore considered undetected.
Compounds were labelled as high permeability (green), medium permeability (orange) or low
Artificial Membrane Permeability (PAMPA):
The PAMPA Evolution™ instrument was used to determine permeability, at Pion Inc. In
PAMPA, a sandwich is formed such that each composite well is divided into two chambers,
measured at pH 6.8 in the donor compartment using low-binding, low UV Prisma buffer. The
drug-free acceptor compartment was filled with acceptor sink buffer containing a scavenger at
the start of the test. The proprietary scavenger mimics serum proteins and blood circulation,
thus creating sink conditions. Aqueous solutions of studied compounds are prepared by diluting
and thoroughly mixing 3 µL of DMSO stock in 600 µL of Prisma HT buffer. Final
concentration of organic solvent (DMSO) in aqueous buffer is ≤ 0.5% (v/v). The reference
solution is identical to the donor at time zero, so that any surface adsorption effects from the
plastic ware is compensated. The PAMPA sandwich was assembled and allowed to incubate
for ~15 hours. The solutions in the donor compartment were un-stirred within duration of the
experiment. Thus, the thickness of the aqueous boundary layer expected to be about 1000 µm.
The sandwich was then separated, and both the donor and receiver compartments were assayed
for the amount of drug present by comparison with the UV spectrum obtained from reference
In data set [3] the target is T2, recombinant human BMX protein (hBMX) (Homo sapiens, UniProt P51813).
T2 construct: Crystallization, data collection, and structure determination of BMX catalytic domain in; made in house; host or cells: Sf-9 insect cells
Description: Differential scanning fluorimetry (DSF). The data set is classed as binding. The conditions noted are these: 100 μM compound; for ΔTm: versus apo-BMX; for Average Tm of BMX with compound: apo-BMX Tm 51.8-52.2 °C. (In general: In DSF a fluorescence change marks the thermal transition of the protein.)
Description: We further characterized the binding interaction between JS24–JS27 and BMX by using differential scanning fluorimetry (DSF) and surface plasmon resonance (SPR). Purified recombinant human BMX protein (hBMX) was first subjected to thermal scanning in the absence and presence of JS24–JS27, and the respective protein melting temperature (Tm) calculated.
Differential Scanning Fluorimetry:
DSF was performed in MicroAmp™ EnduraPlate™ Optical 96 -Well Clear Reaction Plates
with Barcode (Applied Biosystems, Life Technologies, California, USA) using a QuantStudio
7 Flex Real-Time PCR System (Applied Biosystems). Pre-incubation of the protein with the
compound for 2 hours at 4 °C was required prior to DSF experiments. The final reaction mixture
(20 μL of total volume) contained 4 μg of His6-BMX, 4-fold of Protein Thermal Shift™ Dye
(Applied Biosystems) diluted in protein buffer solution, and 100 μM of compound. The
temperatures were obtained by taking the midpoint of each transition.

The mark [4] stands for this setting: Experiment 2 of Fig. S3, control commercial BMX-IN-1.

On to `C=CC(=O)Nc1cc(-n2c(=O)ccc3cnc4ccc(-c5ccc(NS(C)(=O)=O)cc5)cc4c32)ccc1OC` [JS9E], for which the IC50 (in general, the midpoint of a concentration-inhibition curve) on BMX (Experiment 1 of Fig. S3, control JS9A (in-house BMX-IN-1)) was 1300 ± 206 nM. Further, the “BMX potency loss (fold) against control BMX-IN-1” value at BMX (relative to the control of the same set of experiments) stood at 4 fold. The solubility in data set [1] is 1 µM (≈ 0.541 µg/mL). In data set [2], the PAMPA/%R membrane retention is reported as 55±8% and the PAMPA/Pe effective permeability is listed as 40±5 x10-6 cm/sec. Besides, in data set [3], the thermal shift (ΔTm) (in general, the change in melting temperature against a reference sample) came to 6.05±0.01 °C and the “Average Tm of BMX with compound” value was 57.97±0.01 °C.

Take `Cc1ccc(-n2c(=O)ccc3cnc4ccc(-c5ccc(NS(C)(=O)=O)cc5)cc4c32)cc1NCC=CC#N` (mixture of isomers) [JS12]: the solubility in data set [1] turned out to be 0.1 µM. Further, in data set [2], the PAMPA/%R membrane retention is 39±2% and the PAMPA/Pe effective permeability is listed as 45±3 x10-6 cm/sec. Besides, in data set [3], the thermal shift (ΔTm) turned out to be 0.13±0.06 °C and the “Average Tm of BMX with compound” value was 52.05±0.06 °C.

In the case of `C=CC(=O)Nc1cc(-n2c(=O)ccc3cnc4ccc(-c5ccncc5)cc4c32)ccc1C` [JS17], the IC50 at BMX (setting [4]) amounted to 45 ± 10 nM. Also, in data set [2], the PAMPA/%R membrane retention was found to be 10±3% and the PAMPA/Pe effective permeability is 24±1 x10-6 cm/sec. For the same molecule, in data set [3], the thermal shift (ΔTm) was found to be 7.62±0.01 °C and the “Average Tm of BMX with compound” value turned out to be 59.55±0.01 °C.

With `C=CC(=O)Nc1cc(-n2c(=O)ccc3cnc4ccc(N5CCOCC5)cc4c32)ccc1C` [JS21], the half-inhibitory concentration (IC50) at BMX (setting [4]) amounted to 43 ± 5 nM. In addition, in data set [2], the PAMPA/%R membrane retention is recorded as 19±3% and the PAMPA/Pe effective permeability is recorded as 22±1 x10-6 cm/sec. Also, in data set [3], the ΔTm was found to be 8.57±0.06 °C and the “Average Tm of BMX with compound” value was 60.50±0.06 °C.

Regarding `C=CC(=O)Nc1cc(-n2c(=O)ccc3cnc4ccc(Br)cc4c32)ccc1C` [JS29], the concentration for half-maximal inhibition (IC50) on BMX (setting [4]) worked out at 44 ± 2 nM. In data set [2], the PAMPA/%R membrane retention is listed as 1±1% and the PAMPA/Pe effective permeability is 32±4 x10-6 cm/sec.

`C=CC(=O)Nc1cc(-n2c(=O)ccc3cnc4ccc(-c5ccc(C#N)nc5)cc4c32)ccc1C` [JS18]: the IC50 at BMX (setting [4]) came out at 140 ± 12 nM. In addition, the solubility in data set [1] was under 0.1 µM. In addition, in data set [2], the PAMPA/%R membrane retention amounted to 18±5% and the PAMPA/Pe effective permeability is 24±2 x10-6 cm/sec. In data set [3], the thermal shift (ΔTm) came to 7.49±0.11 °C and the “Average Tm of BMX with compound” value came to 59.42±0.11 °C.

Regarding `C=CC(=O)Nc1cc(-n2c(=O)ccc3cnc4ccc(N5CCCCC5)cc4c32)ccc1C` [JS20], the IC50 at BMX (setting [4]) was found to be 42 ± 13 nM. Also, in data set [2], the PAMPA/%R membrane retention is reported as 18±1% and the PAMPA/Pe effective permeability is reported as 30±2 x10-6 cm/sec. In data set [3], the ΔTm was found to be 7.36±0.11 °C and the “Average Tm of BMX with compound” value turned out to be 59.29±0.11 °C.

As to `C=CC(=O)Nc1cc(-n2c(=O)ccc3cnc4ccc(N5CCN(S(C)(=O)=O)CC5)cc4c32)ccc1C` [JS22], the concentration for half-maximal inhibition (IC50) on BMX (Experiment 3 of Fig. S3, control commercial BMX-IN-1) came out at 93.8 ± 0.87 nM. Further, in data set [2], the PAMPA/%R membrane retention amounted to 19±6% and the PAMPA/Pe effective permeability was 18±1 x10-6 cm/sec. In data set [3], the thermal shift (ΔTm) came to 8.79±0.21 °C and the “Average Tm of BMX with compound” value was found to be 60.72±0.21 °C.

Turning to `COC(=O)C=CCNc1cc(-n2c(=O)ccc3cnc4ccc(-c5ccc(NS(C)(=O)=O)cc5)cc4c32)ccc1C` (mixture of isomers) [JS13], the solubility in data set [1] was found to be 0.1 µM. In data set [2], the PAMPA/%R membrane retention is recorded as 30±16% and the PAMPA/Pe effective permeability was 45±9 x10-6 cm/sec. In addition, in data set [3], the ΔTm turned out to be 0.52±0.06 °C and the “Average Tm of BMX with compound” value is 52.44±0.06 °C.

As for `C=CC(=O)Nc1cc(-n2c(=O)ccc3cnc4ccc(N5CCC(N(C)C)CC5)cc4c32)ccc1C` [JS23], the IC50 at BMX (setting [4]) came to 41 ± 6 nM. For the same molecule, in data set [2], the PAMPA/%R membrane retention amounted to 39±5% and the PAMPA/Pe effective permeability is listed as 2.2±0.2 x10-6 cm/sec. For the same molecule, in data set [3], the thermal shift (ΔTm) turned out to be 8.66±0.11 °C and the “Average Tm of BMX with compound” value came out at 60.59±0.11 °C.
